According to patent publication US4613355A, “Antibiotic having herbicidal activity” (Satoshi Omura, priority 1983, dated 1986):

Key:
Format in all cases: in vivo
Design in all cases: key: 0 indicates no effect; 5 indicates complete kill
Picea densiflora = assay: Foliage treatment of woody plants (Example 10); settings: Plant No. 22 Picea densiflora
Description: (§1) Aqueous solutions containing Phosalacine (Na salt) at different concentrations and 0.1% of octylphenylpolyoxy ethanol as surfactant were applied at a rate of 1500 liter per hectare to woody plants of about 60-70 cm in height. 7 and 14 days after the foliage treatment, damage to the plants was visually assessed on a scale of from 0 to 5 (cf. Example 7).

Castanea crenata = assay: Foliage treatment of woody plants (Example 10); settings: Plant No. 8 Castanea crenata
Description: as §1

Larix leptolepis = assay: Foliage treatment of woody plants (Example 10); settings: Plant No. 23 Larix leptolepis
Description: as §1

Oryzae sativa = assay: Foliage treatment (Example 8); settings: Plant No. 25 Oryzae sativa
Description: (§2) Aqueous solutions of Phosalacine (Na salt) at different concentrations were applied at a rate of 1500 liters per hectare to naturally occurring plants or plants which were cultured on plates as shown in the following Table at certain stages of growth. […] One month after the foliage treatment, the inhibition of regrowth of the plants was visually investigated.

Pueraria lobata = assay: Foliage treatment (Example 8); settings: Plant No. 16 Pueraria lobata
Description: as §2

Daucus carota = assay: Foliage treatment (Example 8); settings: Plant No. 29 Daucus carota
Description: as §2

Digitaria adscendens = assay: Foliage treatment (Example 8); settings: Plant No. 10 Digitaria adscendens
Description: as §2

Triticum aestivum = assay: Foliage treatment (Example 8); settings: Plant No. 26 Triticum aestivum
Description: as §2

Rumex obtusifolius = assay: Foliage treatment (Example 8); settings: Plant No. 14 Rumex obtusifolius
Description: as §2

Pleioblastus chino = assay: Foliage treatment (Example 8); settings: Plant No. 11 Pleioblastus chino
Description: as §2

Imperata cyrindrica = assay: Foliage treatment (Example 8); settings: Plant No. 15 Imperata cyrindrica
Description: as §2

Cayratia japonica = assay: Foliage treatment (Example 8); settings: Plant No. 13 Cayratia japonica
Description: as §2

Raphanus sativus = assay: Foliage treatment (Example 8); settings: Plant No. 32 Raphanus sativus
Description: as §2

Solanum melongena = assay: Foliage treatment (Example 8); settings: Plant No. 31 Solanum melongena
Description: as §2

Helianthus tuberosus = assay: Foliage treatment (Example 8); settings: Plant No. 12 Helianthus tuberosus
Description: as §2

`C[C@H](NC(=O)[C@H](C)NC(=O)[C@@H](N)CCP(C)(=O)[O-])C(=O)O.[Na+]` [SF, reference compound] was tested, and the “damage to the plants, scale 0 to 5” value (Picea densiflora; 0.125%, 7 days) was 4, the “damage to the plants, scale 0 to 5” value (Picea densiflora; 0.125%, 14 days) was 5 and the “damage to the plants, scale 0 to 5” value (Picea densiflora; 0.25%, 7 days) was 4. For the same compound, the “damage to the plants, scale 0 to 5” value (Picea densiflora; 0.25%, 14 days) was 5, the “damage to the plants, scale 0 to 5” value (Picea densiflora; 0.5%, 7 days) was 4 and the “damage to the plants, scale 0 to 5” value (Picea densiflora; 0.5%, 14 days) was 5. For the same compound, the “damage to the plants, scale 0 to 5” value (Castanea crenata; 0.125%, 7 days) was 5, the “damage to the plants, scale 0 to 5” value (Castanea crenata; 0.125%, 14 days) was 5 and the “damage to the plants, scale 0 to 5” value (Castanea crenata; 0.25%, 7 days) was 5. For the same compound, the “damage to the plants, scale 0 to 5” value (Castanea crenata; 0.25%, 14 days) was 5, the “damage to the plants, scale 0 to 5” value (Castanea crenata; 0.5%, 7 days) was 5 and the “damage to the plants, scale 0 to 5” value (Castanea crenata; 0.5%, 14 days) was 5. The “damage to the plants, scale 0 to 5” value (Larix leptolepis; 0.125%, 7 days) was 4, the “damage to the plants, scale 0 to 5” value (Larix leptolepis; 0.125%, 14 days) was 5 and the “damage to the plants, scale 0 to 5” value (Larix leptolepis; 0.25%, 7 days) was 4. The “damage to the plants, scale 0 to 5” value (Larix leptolepis; 0.25%, 14 days) was 5, the “damage to the plants, scale 0 to 5” value (Larix leptolepis; 0.5%, 7 days) was 4 and the “damage to the plants, scale 0 to 5” value (Larix leptolepis; 0.5%, 14 days) was 5. For the same compound, the “damage to the plants, scale 0 to 5” value (Oryzae sativa; 0.1%, 7 days) was 3, the “damage to the plants, scale 0 to 5” value (Oryzae sativa; 0.1%, 14 days) was 4 and the “damage to the plants, scale 0 to 5” value (Oryzae sativa; 0.2%, 7 days) was 4. For the same compound, the “damage to the plants, scale 0 to 5” value (Oryzae sativa; 0.2%, 14 days) was 5, the “damage to the plants, scale 0 to 5” value (Pueraria lobata; 0.1%, 7 days) was 3 and the “damage to the plants, scale 0 to 5” value (Pueraria lobata; 0.1%, 14 days) was 4. For the same compound, the “damage to the plants, scale 0 to 5” value (Pueraria lobata; 0.2%, 7 days) was 4, the “damage to the plants, scale 0 to 5” value (Pueraria lobata; 0.2%, 14 days) was 5 and the “damage to the plants, scale 0 to 5” value (Daucus carota; 0.1%, 7 days) was 2. For the same compound, the “damage to the plants, scale 0 to 5” value (Daucus carota; 0.1%, 14 days) was 4, the “damage to the plants, scale 0 to 5” value (Daucus carota; 0.2%, 7 days) was 3 and the “damage to the plants, scale 0 to 5” value (Daucus carota; 0.2%, 14 days) was 5. The “damage to the plants, scale 0 to 5” value (Digitaria adscendens; 0.1%, 7 days) was 3, the “damage to the plants, scale 0 to 5” value (Digitaria adscendens; 0.1%, 14 days) was 4 and the “damage to the plants, scale 0 to 5” value (Digitaria adscendens; 0.2%, 7 days) was 5. The “damage to the plants, scale 0 to 5” value (Digitaria adscendens; 0.2%, 14 days) was 5, the “damage to the plants, scale 0 to 5” value (Triticum aestivum; 0.1%, 7 days) was 3 and the “damage to the plants, scale 0 to 5” value (Triticum aestivum; 0.1%, 14 days) was 4. The “damage to the plants, scale 0 to 5” value (Triticum aestivum; 0.2%, 7 days) was 4, the “damage to the plants, scale 0 to 5” value (Triticum aestivum; 0.2%, 14 days) was 5 and the “damage to the plants, scale 0 to 5” value (Rumex obtusifolius; 0.1%, 7 days) was 3. The “damage to the plants, scale 0 to 5” value (Rumex obtusifolius; 0.1%, 14 days) was 4, the “damage to the plants, scale 0 to 5” value (Rumex obtusifolius; 0.2%, 7 days) was 4 and the “damage to the plants, scale 0 to 5” value (Rumex obtusifolius; 0.2%, 14 days) was 5. The “damage to the plants, scale 0 to 5” value (Pleioblastus chino; 0.1%, 7 days) was 3, the “damage to the plants, scale 0 to 5” value (Pleioblastus chino; 0.1%, 14 days) was 4 and the “damage to the plants, scale 0 to 5” value (Pleioblastus chino; 0.2%, 7 days) was 4. The “damage to the plants, scale 0 to 5” value (Pleioblastus chino; 0.2%, 14 days) was 5, the “damage to the plants, scale 0 to 5” value (Imperata cyrindrica; 0.1%, 7 days) was 3 and the “damage to the plants, scale 0 to 5” value (Imperata cyrindrica; 0.1%, 14 days) was 4. For the same compound, the “damage to the plants, scale 0 to 5” value (Imperata cyrindrica; 0.2%, 7 days) was 4, the “damage to the plants, scale 0 to 5” value (Imperata cyrindrica; 0.2%, 14 days) was 5 and the “damage to the plants, scale 0 to 5” value (Cayratia japonica; 0.1%, 7 days) was 3. For the same compound, the “damage to the plants, scale 0 to 5” value (Cayratia japonica; 0.1%, 14 days) was 4, the “damage to the plants, scale 0 to 5” value (Cayratia japonica; 0.2%, 7 days) was 4 and the “damage to the plants, scale 0 to 5” value (Cayratia japonica; 0.2%, 14 days) was 5. The “damage to the plants, scale 0 to 5” value (Raphanus sativus; 0.1%, 7 days) was 3, the “damage to the plants, scale 0 to 5” value (Raphanus sativus; 0.1%, 14 days) was 4 and the “damage to the plants, scale 0 to 5” value (Raphanus sativus; 0.2%, 7 days) was 4. For the same compound, the “damage to the plants, scale 0 to 5” value (Raphanus sativus; 0.2%, 14 days) was 5, the “damage to the plants, scale 0 to 5” value (Solanum melongena; 0.1%, 7 days) was 3 and the “damage to the plants, scale 0 to 5” value (Solanum melongena; 0.1%, 14 days) was 4. For the same compound, the “damage to the plants, scale 0 to 5” value (Solanum melongena; 0.2%, 7 days) was 5, the “damage to the plants, scale 0 to 5” value (Solanum melongena; 0.2%, 14 days) was 5 and the “damage to the plants, scale 0 to 5” value (Helianthus tuberosus; 0.1%, 7 days) was 3. The “damage to the plants, scale 0 to 5” value (Helianthus tuberosus; 0.1%, 14 days) was 4, the “damage to the plants, scale 0 to 5” value (Helianthus tuberosus; 0.2%, 7 days) was 4 and the “damage to the plants, scale 0 to 5” value (Helianthus tuberosus; 0.2%, 14 days) was 5.
